Data reported in article PMC10756276, “Highly specific σ2R/TMEM97 ligand FEM-1689 alleviates neuropathic pain and inhibits the integrated stress response” (Proceedings of the National Academy of Sciences of the …, 2023).
“Also recorded” adds a separate entry of the source. Like-named read-outs stand apart in the source and are kept apart here.

Key:
[1] = system: p-eIF2α in human DRG neurons; experiment: p-eIF2α immunocytochemistry in cultured human DRG neurons; assay type: cell-based
H3 = molecular target: T1, H3 (Homo sapiens, UniProt Q9Y5N1); experiment: PDSP competitive binding assay; conditions: 10 µM test article; read-out: Ki: primary assay inhibition of radioligand binding, H3
T1 construct: purchased NIMH Psychoactive Drug Screening Program (PDSP), University of North Carolina at Chapel Hill

5HT3 = 5HT3 (Homo sapiens, UniProt P46098); experiment: PDSP competitive binding assay; conditions: 10 µM test article; read-out: Ki: primary assay inhibition of radioligand binding, 5HT3
[2] = system: SNI model of neuropathic pain, wild-type and TMEM97KO mice; experiment: SNI model of neuropathic pain, von Frey mechanical hypersensitivity; assay type: in vivo, mouse; conditions: for mechanical hypersensitivity after SNI (von Frey): male and female
SERT = molecular target: T2, SERT (Homo sapiens, UniProt P31645); experiment: PDSP competitive binding assay; conditions: 10 µM test article; read-out: Ki: primary assay inhibition of radioligand binding, SERT
T2 construct: purchased NIMH Psychoactive Drug Screening Program (PDSP), University of North Carolina at Chapel Hill

DOR = DOR (Homo sapiens, UniProt P41143); experiment: PDSP competitive binding assay; conditions: 10 µM test article; read-out: Ki: primary assay inhibition of radioligand binding, DOR
D1 = D1 (Homo sapiens, UniProt P21728); experiment: PDSP competitive binding assay; conditions: 10 µM test article; read-out: Ki: primary assay inhibition of radioligand binding, D1
Alpha1b = molecular target: T3, Alpha1b (Homo sapiens, UniProt P35368); experiment: PDSP competitive binding assay; conditions: 10 µM test article; read-out: Ki: primary assay inhibition of radioligand binding, Alpha1b
T3 construct: purchased NIMH Psychoactive Drug Screening Program (PDSP), University of North Carolina at Chapel Hill

Beta2 = Beta2 (Homo sapiens, UniProt P07550); experiment: PDSP competitive binding assay; conditions: 10 µM test article; read-out: Ki: primary assay inhibition of radioligand binding, Beta2
PBR = molecular target: T4, PBR (Rattus norvegicus, UniProt P16257); experiment: PDSP competitive binding assay; conditions: 10 µM test article; read-out: Ki: primary assay inhibition of radioligand binding, PBR
T4 construct: purchased NIMH Psychoactive Drug Screening Program (PDSP), University of North Carolina at Chapel Hill

M5 = molecular target: T5, M5 (Homo sapiens, UniProt P08912); experiment: PDSP competitive binding assay; conditions: 10 µM test article; read-out: Ki: primary assay inhibition of radioligand binding, M5
T5 construct: purchased NIMH Psychoactive Drug Screening Program (PDSP), University of North Carolina at Chapel Hill

5HT1D = 5HT1D (Homo sapiens, UniProt P28221); experiment: PDSP competitive binding assay; conditions: 10 µM test article; read-out: Ki: primary assay inhibition of radioligand binding, 5HT1D
KOR = KOR (Homo sapiens, UniProt P41145); experiment: PDSP competitive binding assay
BiP in mouse DRG neurons = experiment: BiP immunocytochemistry in cultured DRG neurons; assay type: cell-based; conditions: ISRIB 200 nM
Description: The ICC protocol was based on a previously published protocol ([76]). […] Cells were blocked with 10% normal goat serum (NGS) in PBS-triton X (0.1%). […] Antibodies were incubated at 4 °C overnight. […] It was washed with PBS twice. […] Images were analyzed using Olympus CellSens. […] Number of cells analyzed are detailed in SI Appendix, Tables S3 and S4. […]
T his BSA gradient containing the cells was centrifuged at 900g for 5 min at room temperatur e.
The pellet containing the cells was resuspended in Br ainPhys media (STEMCell #05790) containing 2% […]
1% Gluta Max (Gibco # 350 5 0061). Hu man DRG ne uron s were plated a nd grown o n glass coverslips coate d with po ly-D-lysine (Sigma #P7405). C ultured D RG neurons were plated for 24 hours before being treated.
Methylglyoxal (Sigma- Aldrich #M0252) and F EM- 1689 were serially diluted in media.
Mouse samples - DRG cultures […]
anesthesia and decapitated. […]
section above with minor differences.
Mouse DRG neurons were grown in
SAS-0132 and DKR-1677 were […]
dissolved in 100% DMSO to a final concentr ation of 200mM and stored at - 20 °C. and DKR-1677 were serially diluted in media. Untreated media was completely replaced with media containing each compound. […]
Slides were […]
incubated with 1:2 diluted hydrogen peroxide in distilled water for 10 min at r oom temper ature and washed twice in distilled water. The protease IV was applied to each section and incubated for 5 min at room temperature. Slides were w ashed twice in 1X PBS and RNA scope was performed immediately. A mixture of probes - Tmem97, Scn10a, and Fabp7 – was hybridized for 2 hours at 40 °C in a humidity control tray

5HT7 = molecular target: T6, 5HT7 (Homo sapiens, UniProt P34969); experiment: PDSP competitive binding assay; conditions: 10 µM test article; read-out: Ki: primary assay inhibition of radioligand binding, 5HT7
T6 construct: purchased NIMH Psychoactive Drug Screening Program (PDSP), University of North Carolina at Chapel Hill

5HT1B = molecular target: T7, 5HT1B (Homo sapiens, UniProt P28222); experiment: PDSP competitive binding assay; conditions: 10 µM test article; read-out: Ki: primary assay inhibition of radioligand binding, 5HT1B
T7 construct: purchased NIMH Psychoactive Drug Screening Program (PDSP), University of North Carolina at Chapel Hill

Alpha1a = molecular target: T8, Alpha1a (Homo sapiens, UniProt P35348); experiment: PDSP competitive binding assay
T8 sequence (P35348 1-466): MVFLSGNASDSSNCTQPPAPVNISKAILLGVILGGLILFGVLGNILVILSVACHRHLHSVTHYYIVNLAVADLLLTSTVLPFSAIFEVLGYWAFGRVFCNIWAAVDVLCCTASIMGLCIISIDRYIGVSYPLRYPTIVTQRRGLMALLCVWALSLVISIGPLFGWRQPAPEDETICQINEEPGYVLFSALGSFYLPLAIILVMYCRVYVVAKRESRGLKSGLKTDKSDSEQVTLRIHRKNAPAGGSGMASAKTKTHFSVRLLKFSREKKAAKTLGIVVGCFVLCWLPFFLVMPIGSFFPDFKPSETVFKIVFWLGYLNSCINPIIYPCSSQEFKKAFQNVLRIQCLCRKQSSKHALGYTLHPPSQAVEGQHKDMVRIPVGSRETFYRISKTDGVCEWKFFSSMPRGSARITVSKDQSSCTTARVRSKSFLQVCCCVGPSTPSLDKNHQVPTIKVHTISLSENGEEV

5HT6 = 5HT6 (Homo sapiens, UniProt P50406); experiment: PDSP competitive binding assay; conditions: single determination

OCCCN1CC[C@@H]2C[C@H]1c1cc(-c3ccc(C(F)(F)F)cc3)ccc12 [FEM-1689]
p-eIF2α levels ([1]; 10 and 100 nM, 16 h): significantly reduced p-eIF2α levels | MGO-induced increase in p-eIF2α ([1]; cotreatment MGO 1 µM and FEM-1689 100 nM): prevented this increase; also recorded: prevented an increase in p-eIF2α | inhibition at 10 µM (H3): < 50% | inhibition at 10 µM (5HT3): < 50% | mechanical hypersensitivity after SNI (von Frey) ([2]; single 10 mg/kg IV, 30 d after SNI, wild-type and TMEM97KO, 7 d, 10 mg/kg): little or no change for mechanical sensitivity in either group; also recorded: not sufficient to reduce mechanical hypersensitivity | mechanical hypersensitivity after SNI (von Frey) ([2]; single 20 mg/kg IV, TMEM97KO mice, 20 mg/kg): failed to reduce mechanical hypersensitivity | duration of reversal of mechanical hypersensitivity ([2]; single 20 mg/kg IV, wild-type mice): roughly 4 d | mechanical hypersensitivity after SNI (von Frey) ([2]; single 20 mg/kg IV, wild-type mice, 20 mg/kg): effectively reversed mechanical hypersensitivity; also recorded: maximal antinociceptive effect | inhibition at 10 µM (SERT): < 50% | inhibition at 10 µM (DOR): < 50% | inhibition at 10 µM (D1): < 50% | inhibition at 10 µM (Alpha1b): < 50% | inhibition at 10 µM (Beta2): < 50% | inhibition at 10 µM (PBR): < 50% | inhibition at 10 µM (M5): < 50% | inhibition at 10 µM (5HT1D): < 50% | Ki (KOR; Run 1, read-out: Ki, KOR): 4.7 µM | Ki (KOR; Run 2, read-out: Ki, KOR): 9.49 µM | Ki (KOR; read-out: KOR Ki): 7.09 ± 2.4 µM | BiP levels (BiP in mouse DRG neurons; TMEM97KO mouse DRG neurons): una ffecte d; also recorded: did not reduce levels of BiP | BiP levels (BiP in mouse DRG neurons; wild-type mouse DRG neurons): reduced at a high concentration of 1000 nM | inhibition at 10 µM (5HT7): < 50% | inhibition at 10 µM (5HT1B): < 50% | LogKi, Alpha1A (Alpha1a; dose response curve, given as LogKi with negative sign): -5.70 | Ki (Alpha1a; read-out: Alpha1a Ki, single determination): 1.99 µM | Ki (Alpha1a; read-out: Ki, Alpha1A, dose response curve): 1.99 µM | Ki (5HT6): > 10 µM
